Source: patent publication US20240398822A1, “METHODS AND COMPOSITIONS FOR TREATING AND MANAGING ALZHEIMER'S DISEASE” (Pharmatrophix, Inc., priority 2021, published 2024)

Test: Phase 1 SAD/MAD pharmacokinetics
Format: in vivo
Text: The phase 1 study was placebo controlled and double blinded and included 52 subjects in SAD studies and 20 subjects in MAD studies.

**Q.** What does the source list for `NCCN1CCOCC1` [aminoethyl morpholine metabolite, aminoethyl morpholine]?
**A.** food effect (elderly adults, fed versus fasted): apparent food effect; pharmacokinetics after single oral doses (exposure proportional to dose over 100-900 mg of free base): linear pharmacokinetics; time to reach steady state upon multiple dosing (in vivo): approximately 5 days post dose
